# Measured values: ChEMBL document CHEMBL4295262, “Evaluation of the utility of stem-cell derived cardiomyocytes for drug proarrhythmic potential” (2019)
# Assays:
# Conditions in all cases: human, ipsc-cm
# [1] = (§1) Electrical activity assay on cell lines treated with a given drug. DMSO was used as a vehicle and a control, unblinded dofetilide was used as a control.; assay type: ADME, cell-based
# [2] = as §1; assay type: ADME, cell-based; remark: listed apart in the source
# [3] = as §1; assay type: ADME, cell-based; design: FPDc: unit not given here
# [4] = as §1
# [5] = as §1; remark: listed apart in the source
# [6] = as §1; remark: listed apart in the source
# [7] = 0.1 µM, concentration (um) 0.1 uM
# [8] = 10 µM, concentration (um) 10 uM
# [9] = 100 µM, concentration (um) 100 uM
# [10] = 0.01 µM, concentration (um) 0.01 uM
# [11] = 0.03 µM, concentration (um) 0.03 uM
# [12] = 0.09507 µM, concentration (um) 0.0950736 uM
# [13] = 0.3004 µM, concentration (um) 0.300433 uM
# [14] = 0.9494 µM, concentration (um) 0.949367 uM
structure (smiles),measurement,setting,value
CC(C)NCC(O)c1ccc(NS(C)(=O)=O)cc1 (centres undefined) [SOTALOL],FPD measurement,[1]; [7],5 Values Out Of 5 Were Excluded Due To Quiescence Or 0 Apdc
same,FPDc,[1]; [7],22.36
same,FPD measurement,"[1]; 1 µM, concentration (um) 1 uM",5 Values Out Of 5 Were Excluded Due To Quiescence Or 0 Apdc
same,FPDc,"[1]; 1 µM, concentration (um) 1 uM",20.88
same,FPD measurement,[1]; [8],5 Values Out Of 5 Were Excluded Due To Quiescence Or 0 Apdc
same,FPDc,[1]; [8],24.73
same,FPD measurement,[1]; [9],More Than Half The Wells Had A Quiescence Event Or Apdc Readings Of 0
same,FPDc,[1]; [9],More Than Half The Wells Had A Quiescence Event Or Fpdc Readings Of 0
same,FPD measurement,[2]; [7],50.96 FPDc
same,FPDc,[2]; [7],6 Values Out Of 6 Were Excluded Due To Quiescence Or 0 Fpdc
same,FPD measurement,"[2]; 1 µM, concentration (um) 1 uM",54.95 FPDc
same,FPDc,"[2]; 1 µM, concentration (um) 1 uM",6 Values Out Of 6 Were Excluded Due To Quiescence Or 0 Fpdc
same,FPD measurement,[2]; [8],164 FPDc
same,FPDc,[2]; [8],6 Values Out Of 6 Were Excluded Due To Quiescence Or 0 Fpdc
same,FPDc,[2]; [9],6 Values Out Of 6 Were Excluded Due To Quiescence Or 0 Fpdc
same,FPD measurement,[3]; [7],5 Values Out Of 5 Were Excluded Due To Quiescence Or 0 Apdc
same,FPDc,[3]; [7],44.43
same,FPD measurement,"[3]; 1 µM, concentration (um) 1 uM",5 Values Out Of 5 Were Excluded Due To Quiescence Or 0 Apdc
same,FPDc,"[3]; 1 µM, concentration (um) 1 uM",41.07
same,FPD measurement,[3]; [8],5 Values Out Of 5 Were Excluded Due To Quiescence Or 0 Apdc
same,FPDc,[3]; [8],57.04
same,FPD measurement,[3]; [9],5 Values Out Of 5 Were Excluded Due To Quiescence Or 0 Apdc
same,FPDc,[3]; [9],45.01
same,APDc,[4]; 0.1 µM,62.02
same,FPD measurement,[4]; 0.1 µM,62.02 FPDc
same,APDc,[4]; 1 µM,63.35
same,FPD measurement,[4]; 1 µM,63.35 FPDc
same,APDc,[4]; 10 µM,71.54
same,FPD measurement,[4]; 10 µM,71.54 FPDc
same,APDc,[4]; 100 µM,79.39
same,FPD measurement,[4]; 100 µM,79.39 FPDc
COc1ccccc1OCC(O)CN1CCN(CC(=O)Nc2c(C)cccc2C)CC1 (centres undefined) [RANOLAZINE],FPD measurement,[1]; [7],5 Values Out Of 5 Were Excluded Due To Quiescence Or 0 Apdc
same,FPDc,[1]; [7],23.9
same,FPD measurement,"[1]; 1 µM, concentration (um) 1 uM",5 Values Out Of 5 Were Excluded Due To Quiescence Or 0 Apdc
same,FPDc,"[1]; 1 µM, concentration (um) 1 uM",22.6
same,FPD measurement,[1]; [8],5 Values Out Of 5 Were Excluded Due To Quiescence Or 0 Apdc
same,FPDc,[1]; [8],23.41
same,FPD measurement,[1]; [9],More Than Half The Wells Had A Quiescence Event Or Apdc Readings Of 0
same,FPDc,[1]; [9],More Than Half The Wells Had A Quiescence Event Or Fpdc Readings Of 0
same,FPD measurement,[2]; [7],51.73 FPDc
same,FPDc,[2]; [7],6 Values Out Of 6 Were Excluded Due To Quiescence Or 0 Fpdc
same,FPD measurement,"[2]; 1 µM, concentration (um) 1 uM",54.52 FPDc
same,FPDc,"[2]; 1 µM, concentration (um) 1 uM",6 Values Out Of 6 Were Excluded Due To Quiescence Or 0 Fpdc
same,FPD measurement,[2]; [8],75.35 FPDc
same,FPDc,[2]; [8],6 Values Out Of 6 Were Excluded Due To Quiescence Or 0 Fpdc
same,FPDc,[2]; [9],6 Values Out Of 6 Were Excluded Due To Quiescence Or 0 Fpdc
same,FPDc,[3]; [7],63.44
same,FPD measurement,"[3]; 1 µM, concentration (um) 1 uM",5 Values Out Of 5 Were Excluded Due To Quiescence Or 0 Apdc
same,FPDc,"[3]; 1 µM, concentration (um) 1 uM",57.19
same,FPDc,[3]; [8],48.79
same,FPDc,[3]; [9],47.75
same,APDc,[4]; 0.1 µM,65.99
same,FPD measurement,[4]; 0.1 µM,65.99 FPDc
same,APDc,[4]; 1 µM,53.66
same,FPD measurement,[4]; 1 µM,53.66 FPDc
same,APDc,[4]; 10 µM,57.23
same,FPD measurement,[4]; 10 µM,57.23 FPDc
same,APDc,[4]; 100 µM,60.49
same,FPD measurement,[4]; 100 µM,60.49 FPDc
COc1cc2c(Nc3ccc(Br)cc3F)ncnc2cc1OCC1CCN(C)CC1 [VANDETANIB],FPD measurement,[1]; [10],5 Values Out Of 5 Were Excluded Due To Quiescence Or 0 Apdc
same,FPDc,[1]; [10],21.62
same,FPD measurement,[1]; [7],5 Values Out Of 5 Were Excluded Due To Quiescence Or 0 Apdc
same,FPDc,[1]; [7],20.73
same,FPD measurement,"[1]; 1 µM, concentration (um) 1 uM",5 Values Out Of 5 Were Excluded Due To Quiescence Or 0 Apdc
same,FPDc,"[1]; 1 µM, concentration (um) 1 uM",22.97
same,FPD measurement,[1]; [8],5 Values Out Of 5 Were Excluded Due To Quiescence Or 0 Apdc
same,FPDc,[1]; [8],5 Values Out Of 5 Were Excluded Due To Quiescence Or 0 Fpdc
same,FPD measurement,[2]; [10],50.93 FPDc
same,FPDc,[2]; [10],6 Values Out Of 6 Were Excluded Due To Quiescence Or 0 Fpdc
same,FPD measurement,[2]; [7],55.37 FPDc
same,FPDc,[2]; [7],6 Values Out Of 6 Were Excluded Due To Quiescence Or 0 Fpdc
same,FPD measurement,"[2]; 1 µM, concentration (um) 1 uM",118.9 FPDc
same,FPDc,"[2]; 1 µM, concentration (um) 1 uM",6 Values Out Of 6 Were Excluded Due To Quiescence Or 0 Fpdc
same,FPDc,[2]; [8],6 Values Out Of 6 Were Excluded Due To Quiescence Or 0 Fpdc
same,FPD measurement,[3]; [10],5 Values Out Of 5 Were Excluded Due To Quiescence Or 0 Apdc
same,FPDc,[3]; [10],55.57
same,FPD measurement,[3]; [7],5 Values Out Of 5 Were Excluded Due To Quiescence Or 0 Apdc
same,FPDc,[3]; [7],48.34
same,FPD measurement,"[3]; 1 µM, concentration (um) 1 uM",5 Values Out Of 5 Were Excluded Due To Quiescence Or 0 Apdc
same,FPDc,"[3]; 1 µM, concentration (um) 1 uM",57.73
same,FPD measurement,[3]; [8],5 Values Out Of 5 Were Excluded Due To Quiescence Or 0 Apdc
same,FPDc,[3]; [8],73.71
same,APDc,[4]; 0.01 µM,51.06
same,FPD measurement,[4]; 0.01 µM,51.06 FPDc
same,APDc,[4]; 0.1 µM,61.45
same,FPD measurement,[4]; 0.1 µM,61.45 FPDc
same,APDc,[4]; 1 µM,63.98
same,FPD measurement,[4]; 1 µM,63.98 FPDc
same,APDc,[4]; 10 µM,78.14
same,FPD measurement,[4]; 10 µM,78.14 FPDc
Cc1nccn1CC1CCc2c(c3ccccc3n2C)C1=O (centres undefined) [ONDANSETRON],FPD measurement,[3]; [11],5 Values Out Of 5 Were Excluded Due To Quiescence Or 0 Apdc
same,FPDc,[3]; [11],29.28
same,FPDc,"[3]; 0.3 µM, concentration (um) 0.3 uM",58.03
same,FPDc,"[3]; 3 µM, concentration (um) 3 uM",37.01
same,FPDc,"[3]; 30 µM, concentration (um) 30 uM",17.75
same,FPD measurement,[5]; 0.03 µM,1 Values Out Of 1 Were Excluded Due To Quiescence Or 0 Fpdc
same,FPDc,[5]; 0.03 µM,1 Values Out Of 1 Were Excluded Due To Quiescence Or 0 Fpdc
same,FPD measurement,[5]; 0.3 µM,1 Values Out Of 1 Were Excluded Due To Quiescence Or 0 Fpdc
same,FPDc,[5]; 0.3 µM,1 Values Out Of 1 Were Excluded Due To Quiescence Or 0 Fpdc
same,FPD measurement,[5]; 3 µM,1 Values Out Of 1 Were Excluded Due To Quiescence Or 0 Fpdc
same,FPDc,[5]; 3 µM,1 Values Out Of 1 Were Excluded Due To Quiescence Or 0 Fpdc
same,FPD measurement,[5]; 30 µM,1 Values Out Of 1 Were Excluded Due To Quiescence Or 0 Fpdc
same,FPDc,[5]; 30 µM,1 Values Out Of 1 Were Excluded Due To Quiescence Or 0 Fpdc
same,FPD measurement,[6]; 0.03 µM,54.59 FPDc
same,FPDc,[6]; 0.03 µM,54.59
same,FPD measurement,[6]; 0.3 µM,58.58 FPDc
same,FPDc,[6]; 0.3 µM,58.58
same,FPD measurement,[6]; 3 µM,68.22 FPDc
same,FPDc,[6]; 3 µM,68.22
same,FPD measurement,[6]; 30 µM,More Than Half The Wells Had A Quiescence Event Or Fpdc Readings Of 0
same,FPDc,[6]; 30 µM,More Than Half The Wells Had A Quiescence Event Or Fpdc Readings Of 0
CC/C(=C(\c1ccccc1)c1ccc(OCCN(C)C)cc1)c1ccccc1 [TAMOXIFEN],FPD measurement,[1]; [12],5 Values Out Of 5 Were Excluded Due To Quiescence Or 0 Apdc
same,FPDc,[1]; [12],19.16
same,FPD measurement,[1]; [13],5 Values Out Of 5 Were Excluded Due To Quiescence Or 0 Apdc
same,FPDc,[1]; [13],19.98
same,FPD measurement,[1]; [14],5 Values Out Of 5 Were Excluded Due To Quiescence Or 0 Apdc
same,FPDc,[1]; [14],19.22
same,FPD measurement,"[1]; 3 µM, concentration (um) 3 uM",5 Values Out Of 5 Were Excluded Due To Quiescence Or 0 Apdc
same,FPDc,"[1]; 3 µM, concentration (um) 3 uM",16.9
same,FPD measurement,[2]; [12],46.23 FPDc
same,FPDc,[2]; [12],6 Values Out Of 6 Were Excluded Due To Quiescence Or 0 Fpdc
same,FPD measurement,[2]; [13],47.89 FPDc
same,FPDc,[2]; [13],6 Values Out Of 6 Were Excluded Due To Quiescence Or 0 Fpdc
same,FPD measurement,[2]; [14],110.7 FPDc
same,FPDc,[2]; [14],6 Values Out Of 6 Were Excluded Due To Quiescence Or 0 Fpdc
same,FPDc,"[2]; 3 µM, concentration (um) 3 uM",6 Values Out Of 6 Were Excluded Due To Quiescence Or 0 Fpdc
same,FPD measurement,[3]; [12],5 Values Out Of 5 Were Excluded Due To Quiescence Or 0 Apdc
same,FPDc,[3]; [12],53.17
same,FPD measurement,[3]; [13],5 Values Out Of 5 Were Excluded Due To Quiescence Or 0 Apdc
same,FPDc,[3]; [13],49.96
same,FPD measurement,[3]; [14],5 Values Out Of 5 Were Excluded Due To Quiescence Or 0 Apdc
same,FPDc,[3]; [14],53.33
same,FPD measurement,"[3]; 3 µM, concentration (um) 3 uM",5 Values Out Of 5 Were Excluded Due To Quiescence Or 0 Apdc
same,FPDc,"[3]; 3 µM, concentration (um) 3 uM",51.88
